Data from US20220331348A1, “METHOD OF PREPARING PENTACYCLIC TRITERPENOID SAPONINS AND DRUG COMPOSITION” (CHINA PHARMACEUTICAL UNIVERSITY, priority 2019, published 2022).

Columns and labels:
AMPK in Huh-7 cells = experiment: Activation activity on AMPK in Huh-7 cells (Western Blot); assay type: cell-based; conditions: 10 μM, 12 h, Western Blot gray scale, relative to DMSO = 1
Method: The activation activity of a compound on AMPK in Huh-7 cells was detected by using Western Blot.
Cell culture conditions: Huh-7 cells were cultured in an incubator with 5% CO2 at 37° C. in DMEM complete medium (containing 10% fetal calf serum and 1% streptomycin/penicillin).
Antibody: anti-AMPK (CST, 2532S); anti-pAMPK (CST, 2535S).
Western Blot experiment: the influence of the compound on phosphorylation level of the AMPK in the Huh-7 cells was detected: cells with more than 90% cells alive were taken for the experiment. In a 12-well plate, the Huh-7 cells were plated in the plate at 250000 cells per well, the plate was placed in the incubator with 5% CO2 at 37° C. for culture, an original culture medium was discarded after 12 h, a complete medium containing the pentacyclic triterpenoid saponin was added, a final concentration of subject pentacyclic triterpenoid saponin was set to be 10 μM, and an administration time was set to be 12 h. A positive control compound employs AICAR (100 μM), metformin (70 μM) or A-769662 (100 μM). Then proteins were extracted for Western Blot detection.
Experimental result: a Western Blot experimental result was subjected to gray scale scanning, a p-AMPK/AMPK ratio of negative control DMSO was defined as 1, and a p-AMPK/AMPK ratio of the subject compound was a relative ratio of a negative control group. The larger the numerical value was, the stronger the activation activity of the AMPK of the compound was.

[1] = test system: ulcerative colitis model mice induced by DSS; experiment: Dextran sulphate sodium salt (DSS) induced ulcerative colitis model mice; assay type: in vivo, mouse; conditions: for DAI scores of the treatment group: DSS-induced mice, dose not given, vs model group
Method: C57BL/6 male mice with 6-8 weeks old were selected; a control group was fed with purified water; and a model group, a treatment group and a positive control group were fed with purified water containing 2% dextran sulphate sodium salt (DSS) (36000-50000 M.Wt) for 7 days and then with the purified water for 3 days, and drug intervention was conducted at the same time. The mice in the control group and the model group were orally administered with carboxymethyl cellulose sodium as a placebo, the mice in the treatment group were orally administered with the ziyuglycoside II (purchased from Shanghai Boka Chemistry Technology Co., Ltd) (with a dosage of 5 mg/kg), and the mice in the positive control group were orally administered with 5-aminosalicylic acid as a clinical drug (5-ASA, purchased from Shanghai Sangon Biological Engineering Co., Ltd) (with a dosage of 100 mg/kg). In the administration process, weight changes, feces characters and hematochezia conditions of the mice were observed and recorded every day and were scored, and disease activity indexes were calculated (Disease activity index, DAI).
A scoring rule and a calculation method were as follows: DAT=(weight score+diarrhea score+occult blood score)/3, wherein weight score: 0 (weight gained or unchanged), 1 (weight lost by 1-5%), 2 (weight lost by 6-10%), 3 (weight lost by 11-15%), 4 (weight lost by 15% or above); diarrhea score: 0 (normal feces), 2 (soft feces), 4 (feces sticking anuses or diarrhea); and occult blood score: 0 (negative occult blood), 2 (positive occult blood), and 4 (visible bleeding). Comparing differences in DAI of various groups, it can be known that the ziyuglycoside II has significant prevention and treatment effects on ulcerative colitis of the mice modeled by the dextran sulphate sodium salt (DSS).
The above mice were sacrificed by cervical dislocation at day 11, colon tissues were harvested, lengths of the colon tissues were measured for statistical summary, and differences in colon length of various groups were compared, from which, the ziyuglycoside II has significant prevention and treatment effect on the ulcerative colitis model mice.
Middle segments, with lengths of about 1 cm, of the colon tissues of the above mice were selected, soaked in a formalin solution for fixing overnight, embedded with paraffin and sliced, and the slices were subjected to HE staining. […] Particularly, compared with the positive drug group, the ziyuglycoside II has the advantage of maintaining a thickness of a muscular layer.
10 mg of proximal rectum segments of the colon tissues of the above mice were selected, PBS was added for homogenization, and centrifugation was conducted for taking a supernate. The supernate was subjected to ELISA detection, and protein quantification was conducted for inflammatory factors TNF-α and IL-lb.
10 mg of colon tissues of the above mice were selected for detection of ROS therein.
When the ulcerative colitis occurs, the inflammatory factors may destruct tight junction between intestinal tracts, and destruction of the tight junction enables functions of mucosal barriers to be lost and accelerates development of the diseases. 5 mg of colon tissues of the above mice were selected for qPCR analysis. […] This hints that the ziyuglycoside II further has the efficacy of increasing the expression level of the tight junction and then protecting a structure of each colon. […] Therefore, the ziyuglycoside II is expected to be useful for preparing the drug for preventing or treating the inflammatory bowel diseases such as the ulcerative colitis.

[2] = test system: human ADPKD cyst lining epithelial cell lines WT9-12; experiment: Proliferation of polycystic kidney epithelial cells (CCK-8 method); assay type: cell-based; conditions: 48 h; for inhibition at 10 µM: read-out: Inhibition rate (%)
Source text: Cell and reagent: complete media for human ADPKD cyst lining epithelial cell lines WT9-12 and DMEM were purchased from ATCC Company; fetal calf serums were purchased from Gibco Company; Cell Counting Kit-8 was purchased from DOJINDO Company; Click-iT® EdU Imaging Kits were purchased from Invitrogen™ Thermo Fisher Scientific Company; Caspase -3/CPP32 Colorimetric Assay Kit was purchased from BioVision Company; Annexin V/PI double-staining flow type cell apoptosis detection kits were purchased from Bender Company; and anti-Phospho-(AMPKa, mTOR, p70S6K, 4E-BP1) antibodies were purchased from Cell Signaling Technology Company.
The influence of 2-DG on proliferation of the polycystic kidney epithelial cells was detected with a CCK-8 method: a DMEM complete medium containing 10% fetal calf serum (FBS) was prepared. The polycystic kidney epithelial cells were cultured in an incubator with 5% CO2 at 37° C. after being recovered, a solution was replaced every other day, the polycystic kidney epithelial cells were passaged every 2-3 days, and the cells were in a growing state of adhering to the wall. After trypsin enzyme digestion, cells were resuspended by using a complete medium, the concentration of a polycystic kidney epithelial cell suspension was regulated to be 3×10^7/L, the polycystic kidney epithelial cell suspension was inoculated to 96-well plate by […] per well for culture for 24 h, and the suspension was replaced by a culture medium containing 0.1% FBS for synchronization for 24 h.

[3] = Homo sapiens, Epithelial cell, polycystic kidney epithelial cells, 10 μM, CCK-8, n = 6
[4] = DSS mice, 5 mg/kg orally, vs model group (FIG. 12 A)
[5] = DSS mice, 5 mg/kg, vs model group (FIG. 12 C)

Compound | pAMPK/AMPK ratio (AMPK in Huh-7 cells) | DAI scores of the treatment group [1] | inhibition at 10 µM [2, 3] [%] | further results
C[C@@H]1O[C@@H](O[C@H]2[C@H](O[C@H]3CC[C@@]4(C)[C@@H](CC[C@]5(C)[C@@H]4CC=C4[C@@H]6CC(C)(C)CC[C@]6(C(=O)O)CC[C@]45C)[C@]3(C)CO)OC[C@H](O)[C@@H]2O)[C@H](O)[C@H](O)[C@H]1O [(X), α-hederin] | 3.33 | obviously lower than those of the model group | 80.5 ± 3.2 | 
CC1(C)CC[C@]2(C(=O)O[C@@H]3O[C@H](CO[C@@H]4O[C@H](CO)[C@@H](O)[C@H](O)[C@H]4O)[C@@H](O)[C@H](O)[C@H]3O)CC[C@]3(C)C(=CC[C@@H]4[C@@]5(C)CC[C@H](O[C@@H]6OC[C@H](O)[C@H](O)[C@H]6O)[C@@](C)(CO)[C@@H]5CC[C@]43C)[C@@H]2C1 [(II), asperosaponin VI] | 2.90 | obviously lower than those of the model group |  | IC50 ([2]; Homo sapiens, Epithelial cell, WT9-12 cells, CCK-8 (FIG. 15), read-out: median inhibitory concentration (IC50), proliferation of the polycystic kidney epithelial cells): 3.2 µM
C[C@H]1O[C@@H](O[C@H]2CC[C@@]3(C)[C@@H](CC[C@]4(C)[C@@H]3C=C[C@]35OC[C@@]6(CCC(C)(C)C[C@H]63)[C@H](O)C[C@]54C)[C@]2(C)CO)[C@H](O)[C@@H](O[C@@H]2O[C@H](CO)[C@@H](O)[C@H](O)[C@H]2O)[C@H]1O [(VIII), saikosaponin D] | 2.0 | obviously lower than those of the model group |  | 
C[C@@H]1CC[C@]2(C(=O)O)CC[C@]3(C)C(=CC[C@@H]4[C@@]5(C)CC[C@H](O[C@@H]6OC[C@H](O)[C@H](O)[C@H]6O)C(C)(C)[C@@H]5CC[C@]43C)[C@@H]2[C@]1(C)O [(XIII), ziyuglycoside II] | 2.51 | obviously lower than those of the model group | 72.1 ± 2 | content of the ROS in colon tissues ([1]; DSS mice, 5 mg/kg (FIG. 12 B)): significantly lowered; colon histopathology (HE staining) ([1]; DSS mice, 5 mg/kg orally (FIG. 11)): infiltration of the inflammatory cells is reduced; colon lengths ([1]; DSS mice, 5 mg/kg orally, day 11, vs model group (FIG. 10 B)): significantly larger than those of the model group; DAI scores (disease activity index) ([1]; DSS mice, 5 mg/kg orally, vs model group (FIG. 10 A)): obviously lower than that of the model group; expression level of inflammatory factor IL-1 in colon tissue (ELISA) [1, 4]: significantly lower than those of the model group; expression level of inflammatory factor TNF-α in colon tissue (ELISA) [1, 4]: significantly lower than those of the model group; expression level of Claudin-1 in colon (qPCR) [1, 5]: significantly increased; expression level of Occludin in colon (qPCR) [1, 5]: significantly increased; expression level of ZO-1 in colon (qPCR) [1, 5]: significantly increased
C[C@H]1O[C@@H](O[C@H]2CC[C@@]3(C)[C@@H](CC[C@]4(C)[C@@H]3C=C[C@]35OC[C@@]6(CCC(C)(C)C[C@H]63)[C@@H](O)C[C@]54C)[C@]2(C)CO)[C@H](O)[C@@H](O[C@@H]2O[C@H](CO)[C@@H](O)[C@H](O)[C@H]2O)[C@H]1O [(VII), saikosaponin A] | 1.76 | obviously lower than those of the model group |  | 
CC1(C)CC[C@]2(C(=O)O[C@@H]3O[C@H](CO)[C@@H](O)[C@H](O)[C@H]3O)CC[C@]3(C)C(=CC[C@@H]4[C@@]5(C)CC[C@H](O[C@@H]6O[C@H](C(=O)O)[C@@H](O)[C@H](O)[C@H]6O[C@@H]6O[C@H](CO)[C@@H](O)[C@H](O)[C@H]6O)C(C)(C)[C@@H]5CC[C@]43C)[C@@H]2C1 [(I), ginsenoside Ro] | 2.39 | obviously lower than those of the model group | 74.4 ± 2.3 | 
C[C@@H]1O[C@@H](O[C@H]2[C@H](O[C@H]3CC[C@@]4(C)[C@@H](CC[C@]5(C)[C@@H]4CC=C4[C@@H]6CC(C)(C)CC[C@]6(C(=O)O[C@@H]6O[C@H](CO[C@@H]7O[C@H](CO)[C@@H](O[C@@H]8O[C@@H](C)[C@H](O)[C@@H](O)[C@H]8O)[C@H](O)[C@H]7O)[C@@H](O)[C@H](O)[C@H]6O)CC[C@]45C)[C@]3(C)CO)OC[C@H](O)[C@@H]2O)[C@H](O)[C@H](O)[C@H]1O [(XI), hederacoside C] | 1.95 | obviously lower than those of the model group |  | Inhibition rate (%) ([2]; polycystic kidney epithelial cells, 10 μM, CCK-8, n = 6): 64.4 ± 2.6 %
C[C@@H]1CC[C@]2(C(=O)O[C@@H]3O[C@H](CO)[C@@H](O)[C@H](O)[C@H]3O)CC[C@]3(C)C(=CC[C@@H]4[C@@]5(C)CC[C@H](O[C@@H]6OC[C@H](O)[C@H](O)[C@H]6O)C(C)(C)[C@@H]5CC[C@]43C)[C@@H]2[C@]1(C)O [(XII), ziyuglycoside I] | 2.45 | obviously lower than those of the model group | 69.2 ± 1.7 | 
